# Test results reported in a melting point compilation (Tetko et al.; mined from patent text by program, amines drawn as free bases though some values may be those of a salt).
row,SMILES,melting point
1,CS(=O)(=O)c1ccc(N2CCC(=O)CC2)cc1,183 to 185 °C
2,O=C(CCc1cccnc1)NCCCCC1CCN(C2c3ccccc3COc3ccccc32)CC1 (stereo not given),110 to 112 °C
3,C#CCN1C(=O)C(CC#N)C(CC)(CC)N=C1c1ccccc1 (stereo not given),178 to 180 °C
4,O=C(O)c1ccc2c(c1)S(=O)(=O)c1ccc([N+](=O)[O-])cc1C=C2,310 to 312 °C
5,CCC(O)(Cn1cncn1)C(c1ccc(Cl)cc1)n1cncn1 (stereo not given),60 to 64 °C
6,COc1cc2nc(N3CCN(C)CC3)n3ncnc3c2cc1OC,194 to 196 °C
7,Cc1cc(Cl)c2[nH]ncc2n1,218 °C
8,CCN1CC(C(=O)Nc2cnccn2)CC2c3cccc4[nH]cc(c34)CC21 (stereo not given),151 to 155 °C
9,CCOC(=O)C=C1CCC(C#N)(c2ccc(OC)c3c2OCCO3)CC1 (stereo not given),110 to 112 °C
10,Cc1cc(C(=O)N2Cc3ccc(C(=O)N(C)C[C@@H]4OC(=O)O[C@H]4[C@H](O)[C@H]4COC(=O)O4)n3Cc3ccccc32)ccc1C1=CCCCC1,162 to 168 °C
11,Cn1ccc(=S)c2ccccc21,208 to 210 °C
12,COc1cc(C#N)ccc1C,51 to 52.5 °C
13,CCCCOc1nccnc1C1(O)CN2CCC1CC2 (stereo not given),107 to 108 °C
14,C=CCCC(O)=C(C#N)C(=O)Nc1ccc(Cl)c(C)c1,134 °C
15,Cc1cn(C2=CCC(O)CC2)c(=O)[nH]c1=O (racemic),223 °C
16,O=CNC1=NN(c2ccccn2)CC1,182 to 183 °C
17,CCCCCCCCCCCCC1CC(=O)CCC1=O (stereo not given),73 °C
18,CCOC(=O)c1c2ccc(CC(=O)NOCC(N)=O)ccc-2c(C(=O)OCC)c1N,208 to 210 °C
19,CCN1C(=O)C2CC(c3ccc(N)cc3)(C2)C1=O,159 to 162 °C
20,Cc1cccc(C)c1NC(=O)CN1CCNC(C)C1c1ncnc2sccc12 (stereo not given),184 to 185 °C
21,CCNC1c2cc(S(N)(=O)=O)oc2SCC1(C)C (stereo not given),147 °C

row,SMILES,melting point
1,CN(C)c1c(C=O)n(C)c(=O)n1-c1cccc(C(F)(F)F)c1,87 to 90 °C
2,Cn1cc(N2C=CN=CC2)ccc1=O,166 °C
3,CCCCCN(CCCCC)C(=O)[C@H]1Cc2c([nH]c3ccccc23)CN1,157 to 158 °C
4,CC(=O)c1ccc(NS(C)(=O)=O)c(Cl)c1,129 to 131 °C
5,Oc1ccc(Br)cc1-c1ccc2nonc2c1,179 to 181 °C
6,COc1cc2nc(N3CCN(C(=O)C=Cc4ccc(Br)cc4)CC3)nc(N)c2cc1OC,266 to 268 °C
7,Nc1cn(-c2cncc(F)c2)nc1Br,164 to 165 °C
8,O=C1OCCC1NC(c1ccccc1)(c1ccccc1)c1ccccc1 (stereo not given),164 to 166 °C
9,C=C(C)CSCC(C)C1CC=C2C3=C(CCC21C)C1(C)CCC(O)C(C)(C)C1CC3 (stereo not given),128 to 132 °C
10,CCOC(=O)C1=C(N)NC2=C(C(=O)CCC2)C1c1cccc(C)n1 (stereo not given),> 260 °C
11,O=C(N=NC=C(Cl)Cl)c1ccccc1,50 to 51 °C
12,C=CCn1c(=O)n(CC=C)c(=O)n(-c2cc(N3C(=O)C4=C(CCCC4)C3=O)c(F)cc2Cl)c1=O,80 to 85 °C
13,COc1cc2c3c(cccc3c1[N+](=O)[O-])C(=O)N(O)C2=O,264 to 265 °C
14,OC[C@H]1O[C@@H](n2cnc3c(N[C@H]4CC[C@H](O)CC4)nc(Cl)nc32)[C@H](O)[C@@H]1O,203 to 204 °C
15,CCCCCC(=O)Nc1c(C)c(C)c2c(c1C)C(c1ccc(C)cc1)C(C)(C)O2 (stereo not given),96 to 97 °C
16,O=C1OC(=O)[C@@H](Cl)[C@@H]1Cl (relative stereo),90 to 92 °C
17,COC(=O)[C@H](C)N(C(=O)[C@H](CC(C)C)NC(=O)OC(C)(C)C)c1ccc(Cl)c(Cl)c1,117 to 119 °C
18,O=C1CCC2=C(CCc3cc(Cl)c(Cl)cc32)N1,260 to 261 °C
19,Cc1cc(C)nc(NC(=O)NS(=O)(=O)c2ccccc2C(=O)N(C)C)n1,166 to 168 °C
20,Cc1nc(C(=O)O)c(C(=O)NC(C)(C)C)o1,186 to 188 °C
21,O=C(CCl)Nc1ccc2c(c1NC(=O)CCl)C(=O)c1ccccc1C2=O,254 to 255 °C

row,SMILES,melting point
1,CN1CCN(C(=O)c2cc(Oc3ccc4c(c3)CCN4C(=O)Nc3cccc(C(F)(F)F)c3)ncn2)CC1,203 to 204 °C
2,CC(Oc1ccc(C2CCOCC2)cc1)C(=O)O (stereo not given),156 °C
3,Cn1cc(-c2cc(-c3ccc(N)nc3)ccn2)n(-c2ccc(C(C)(C)C#N)cc2)c1=O,252 °C
4,O=C(Nc1ccc(Oc2ccnc(N3CCC(F)(F)CC3)n2)c2ccccc12)c1cc(F)cc(N2CCCCC2)c1,172 to 174 °C
5,O=CCCCCCN1C(=O)c2ccccc2C1=O,69 to 71 °C
6,CC(=O)SCC(C)C(=O)N(CC(=O)O)C1Cc2ccccc2C1 (stereo not given),81 to 83 °C
7,CCOC(=O)CNC(=O)CCCCCNC(=O)c1ccc(OC)cc1,106 to 107 °C
8,CC1(C)CCCC(N=[N+]=[N-])C(=O)N1 (stereo not given),98 to 100 °C
9,O=C(NC1CCCCC1)c1cc2ccncc2[nH]1,298 to 301 °C
10,CCOC(=O)Oc1cc2occ(C(=O)O)c(=O)c2cc1OC(=O)OCC,107 to 109 °C
11,CN1CCN(c2cccc3c2CC(C(=O)Nc2ccc(N4CCOCC4)cc2)C3)CC1 (stereo not given),248 to 249 °C
12,CCN1C(=O)[C@@H](N)COc2ccccc21,97 °C
13,CC1(C)Cc2cc(C3=NNC(=O)C4CCC34)ccc2NC1=O (stereo not given),301 to 302 °C
14,C[C@H](O)c1nnc(-c2ccc3occ(-c4ccc(S(C)(=O)=O)cc4)c3c2)o1,175 to 176 °C
15,Cc1cccc(-c2cccc3c2OC(CN)C3)c1C (stereo not given),> 225 °C
16,O=C1SC(=O)C(F)=C1F,52 to 56 °C
17,O=C1CCN(CC(c2ccccc2)c2ccccc2)CC1C1(O)CCN(CC(c2ccccc2)c2ccccc2)CC1 (stereo not given),125 to 127 °C
18,CNC(=O)NNC1=NS(=O)(=O)c2ccccc21,183 °C
19,CN(C)C=C(C#N)C(=O)c1cc(F)c(Cl)cc1Cl,138 to 139 °C
20,Cc1cc(C)n(-c2nc(-c3ccc(Cl)cc3)c(CCC(=O)O)o2)n1,201 to 202 °C
21,COc1ccc(C#CCCN2CCOC2=O)cc1OC,78 to 79 °C

# The next lines start with the values.
row,melting point,SMILES
1,76 °C,CCCCc1nc(Cc2ccc(-c3ccccc3C(=O)OC)cc2)c2ccccc2n1
2,228 to 231 °C,Nc1c(NCCCN(Cc2ccccc2)c2ccccn2)c(=O)c1=O
3,199 to 205 °C,CS(=O)(=O)c1cccc(Nc2cc(-c3ccccc3OCc3ccccc3)ncn2)c1
4,96.8 to 97.6 °C,CN1c2ccccc2-n2cc(Cc3cccnc3)c(=O)c3cccc1c32
5,178 to 180 °C,COc1cccc2c(C#Cc3ccccc3)c3cccc(OC)c3c(C#Cc3ccccc3)c12
6,214 to 218 °C,COc1ccc(-c2ccc3c(c2)C=C(C(=O)Nc2ccc(CN(C)C4CCC(=O)CC4)cc2)CCS3(=O)=O)cc1
7,100 to 103 °C,C#CC1=Cc2cc(Cl)ccc2Sc2ccc(SC)cc21
8,154 to 155 °C,Cc1cc(SCc2ccc(OCc3ccc(F)cc3)cc2)ccc1OCC(=O)O
9,166 to 168 °C,CC(C)c1ccc(C(=O)[C@@H]2C[C@H]2c2ccccc2)c(C(C)C)c1OS(N)(=O)=O (relative stereo)
10,109 to 110 °C,COC(=O)c1cn(Cc2ccc3cc(OCc4ccccc4)ccc3c2)cc1-c1ccccc1
11,187 to 188 °C,CC(C)(C)OC(=O)NNC(=O)c1ccnc2[nH]c(CCc3ccccc3)cc12
12,143 to 146 °C,CC(C(=O)O)n1ccc2c(OCc3ccccc3)cccc21 (stereo not given)
13,232 to 234 °C,O=C(C=Cc1ccc(NC(=O)c2ccccc2)cc1)NO
14,238 °C,C[C@H](O)CNc1cc(Oc2ccc(F)cc2F)nc2[nH]nc(-c3ccccc3Cl)c12
15,103 to 105 °C,C#CC[C@H](c1nc2cc(Cl)ccc2c(=O)n1Nc1ccccc1)N(CCCNC(=O)OCc1ccccc1)C(=O)c1cccc(Cl)c1F
16,318 to 320 °C,COc1ccccc1-n1c(=O)[nH]c2c(C(N)=O)nc(-c3ccncc3)nc21
17,155 to 157 °C,Cn1cc(C(=O)c2ccc(F)cc2)cc1C(=O)c1ccncc1
18,108 to 110 °C,COc1ccc(/C=C(\C)c2ccc3c(c2)C(C)(C)CCC3(C)C)cc1
19,> 250 °C,COc1cc2nccc(CC(=O)O)c2cc1OC

row,melting point,SMILES
1,232 °C,CC(C)c1ccccc1-n1c(=O)[nH]c2c(C(N)=O)nc(-c3ccc(-n4ccnc4)cc3)nc21
2,56.5 to 57.5 °C,COc1ccc(OCCc2ccccc2)c(CC(=O)O)c1
3,149 to 151 °C,COC(=O)CNC(=O)c1[nH]c(C)c(-c2nc3ccc(C(=O)c4ccccc4)cc3[nH]2)c1C
4,116 °C,COc1ccc(-c2ccc(NCc3ccccc3)nn2)cc1OC1CCCC1
5,191 to 192 °C,N#CNC(=NC1CCN(Cc2ccccc2)CC1)N1Cc2ccccc2C1
6,120 to 121 °C,O=C(Cc1cccnc1)[N+]1([O-])CCC(=C2c3ccc(Cl)cc3CCc3cccnc32)CC1 (stereo not given)
7,90 °C,CCOCc1nc2c(N)nc3ccc(OCc4ccccc4)cc3c2n1CC(C)(C)NS(C)(=O)=O
8,97 to 98 °C,COc1cc(OCc2ccccc2)ccc1C(=O)c1cc(Cl)ccc1N
9,196 °C,O=S(CCCCCOc1ccc(C2=C(c3ccccc3)CCCc3cc(O)ccc32)cc1)Cc1ccccc1 (stereo not given)
10,127 to 129 °C,CN(CCOc1ccc(CCOCCc2ncn[nH]2)cc1)c1nc2ccccc2o1
11,95 to 96 °C,Cc1ccccc1Nc1nc(NCCc2ccccc2)nc2ccccc12
12,202 to 203 °C,CCc1cccc(CC)c1NC(=O)C1c2ccccc2COc2ccc(C)cc21 (stereo not given)
13,154 to 156 °C,Cc1onc(CCc2ccccc2)c1C(=O)O
14,166 to 167 °C,O=C1C=CC(O)(c2cc3cc(F)ccc3n2S(=O)(=O)c2ccccc2)C=C1
15,128 °C,Cc1ccc(-n2nc(C(C)(C)C)cc2NC(=O)NCc2ccccc2Oc2cc(N3CCOCC3)ncn2)cc1
16,194 to 195 °C,COc1cc(C2C(C(=O)O)c3ccccc3C(=O)N2C)cc(OC)c1OC (stereo not given)
17,133 to 135 °C,O=C(O)CCC(O)c1ccc(-c2ccccc2)c(F)c1 (stereo not given)
18,267 to 278 °C,COc1ccccc1-c1c2nn(-c3ccc(Cl)cc3)c(=O)c-2c[nH]c1C
